Experiments:
TRKC-G696C = target: T1, TRKC-G696C (Homo sapiens, UniProt Q16288, G696C); assay: Bio-layer interferometry (BLI) Octet binding assay
T1 construct: residues 526–839 from the kinase domain; made in house
Description: Biolayer interferometry (BLI) assays were performed with the Octet K2 machine (ForteBio, Inc., Fremont, CA, USA). […] A duplicate set of sensors was incubated in an assay buffer (PBS containing 0.02% Tween20 and 0.1% BSA) with 5% DMSO but without protein for use as a background binding control. Both sets of sensors were blocked with a solution of 10 μg/mL biocytin for 1 min at rt. […] Data was analyzed by the FortéBio Data Analysis 8.1 software (FortéBio, Fremont, CA, USA) using a double reference subtraction (sample and sensor references).

BaF3 ETV6-TRKB-G639R = assay: BaF3 cell proliferation, CCK-8 assay; conditions: Mus musculus, BaF3, 72 h, read-out: IC50 (nM ± SD) Solvent Front ETV6-TRKB-G639R
Description: (§3) Murine BaF3 cells were purchased from JRCB cell bank. The BaF3 cell lines, which stably express natively-fused TRKA/B/C or various point mutants, were self-established by following previously described procedures. Briefly, NTRK genes were totally synthesized and cloned into pCDNA3.1(+) vectors (Invitrogen, Carlsbad, CA, USA). […] Stable strains were established by selection of cells 2 weeks post-transfection with 800 μg/mL G418 (Merck, Whitehouse Station, NJ) and further selection after the withdrawal of interleukin-3 (IL-3, R&D) for 2 weeks. All of BaF3 stable cell lines were verified by DNA sequencing, protein expression and anti-proliferation activity against positive drugs. […] All cells were grown at 37 °C in a humidified 5% CO2 atmosphere.
(§4) Cells were placed in 96-well plates (5000~8000/well) in complete medium. […] IC50 values were calculated by concentration-response curve fitting using GraphPad Prism 5.0 software. Each IC50 value is expressed as mean ± SD.

BaF3 CD74-TRKA-G667C = assay: BaF3 cell proliferation, CCK-8 assay; conditions: Mus musculus, BaF3, 72 h, read-out: IC50 (nM ± SD) xDFG CD74-TRKA-G667C
Description: as §3, §4

TRKC WT [1] = assay: Bio-layer interferometry (BLI) Octet binding assay; design: species or system Human; conditions: TRKC-WT and TRKC-G696C
Description: (§1) Biolayer interferometry (BLI) assays were performed with the Octet K2 machine (ForteBio, Inc., Fremont, CA, USA). […] Excess biotin was removed by column chromatography (PD MiniTrap^TM G-25 Desalting column, Lot#17030445), and the residue was diluted to 400 μL with PBS and immobilized onto Super streptavidin biosensor chips (ForteBio, Cat#18–5057). A duplicate set of sensors was incubated in an assay buffer (PBS containing 0.02% Tween20 and 0.1% BSA) with 5% DMSO but without protein for use as a background binding control. Both sets of sensors were blocked with a solution of 10 μg/mL biocytin for 1 min at rt. Drug concentrations ranged from 0.74 to 180 nmol/L (6 doses). Data was analyzed by the FortéBio Data Analysis 8.1 software (FortéBio, Fremont, CA, USA) using a double reference subtraction (sample and sensor references).

TRKC WT [2] = target: T2, TRKC WT (Homo sapiens, UniProt Q16288); assay: Bio-layer interferometry (BLI) Octet binding assay
T2 construct: residues 526–839 from the kinase domain; made in house
Description: as §1

BaF3 QKI-TRKB = assay: BaF3 cell proliferation, CCK-8 assay; conditions: Mus musculus, BaF3, 72 h, read-out: IC50 (nM ± SD) WT QKI-TRKB
Description: as §3, §4

Parental BaF3 (+IL3) = assay: BaF3 cell proliferation, CCK-8 assay; conditions: Mus musculus, BaF3, 72 h, read-out: IC50 (nM ± SD) Parental BaF3 (+IL3)
Description: as §3, §4

BaF3 MPRIP-TRKA = assay: BaF3 cell proliferation, CCK-8 assay; conditions: Mus musculus, BaF3, 72 h, read-out: IC50 (nM ± SD) WT MPRIP-TRKA
Description: as §3, §4

BaF3 CD74-TRKA-F589L = assay: BaF3 cell proliferation, CCK-8 assay; conditions: Mus musculus, BaF3, 72 h, read-out: IC50 (nM ± SD) Gatekeeper CD74-TRKA-F589L
Description: as §3, §4

[3] = system: BaF3 cells harboring wild-type TRKA/B/C; assay: BaF3 cell proliferation, summary over wild-type lines; conditions: Mus musculus, BaF3, read-out: IC50 range in BaF3 cells harboring wild-type TRKA/B/C
Description: Murine BaF3 cells were purchased from JRCB cell bank. The BaF3 cell lines, which stably express natively-fused TRKA/B/C or various point mutants, were self-established by following previously described procedures. Briefly, NTRK genes were totally synthesized and cloned into pCDNA3.1(+) vectors (Invitrogen, Carlsbad, CA, USA). The pCDNA3.1(+) plasmids containing different NTRK-fusion genes were introduced into BaF3 cells by electroporation (Amaxa Nucleofector II device) using the “Amaxa Cell Line Nucleofector Kit V” (VCA-1003) according to the manufacturer’s directions. Stable strains were established by selection of cells 2 weeks post-transfection with 800 μg/mL G418 (Merck, Whitehouse Station, NJ) and further selection after the withdrawal of interleukin-3 (IL-3, R&D) for 2 weeks. All of BaF3 stable cell lines were verified by DNA sequencing, protein expression and anti-proliferation activity against positive drugs. […]
as §4

BaF3 CD74-TRKA-G595R = assay: BaF3 cell proliferation, CCK-8 assay; conditions: Mus musculus, BaF3, 72 h, read-out: IC50 (nM ± SD) Solvent Front CD74-TRKA-G595R
Description: as §3, §4

[4] = system: BaF3-CD74-TRKA-G595R cells (p-TRKA, ERK, PLCγ); assay: Western blot of TRK signaling; assay type: cell-based, Murine; conditions: 6 h treatment
Description: (§2) Cells were treated with various concentrations of each tested compound for a designated time. Then cells were lysed using 1 × SDS sample lysis buffer (CST recommended) with protease and phosphatase inhibitors. […] The films were blocked with 5% fat-free milk in TBS solution containing 0.5% Tween-20 for 4 h at room temperature, then incubated with the corresponding primary antibody (1:1000–1:200) overnight at 4 °C. After washing with TBST, HRP-conjugated secondary antibody was incubated for 2 h. The protein signals were visualized by ECL Western Blotting Detection Kit (Thermo Scientific, Waltham, MA, USA), and detected with Amersham Imager 600 system (GE, Boston, MA, USA).

[5] = system: BaF3-CD74-TRKA-G667C cells (p-TRKA, ERK, PLCγ); assay: Western blot of TRK signaling; assay type: cell-based, Murine; conditions: 6 h treatment
Description: as §2

[6] = system: BaF3-CD74-TRKA-WT cells (p-TRKA, ERK, PLCγ); assay: Western blot of TRK signaling; assay type: cell-based, Murine; conditions: 6 h treatment
Description: as §2

[7] = Pharmacokinetics in rats (Table S4); assay type: in vivo
[8] = system: BaF3 cells with solvent front mutations (TRKA^G595R, TRKB^G639R, TRKC^G623R); assay: BaF3 cell proliferation, summary over solvent front lines; conditions: Mus musculus, BaF3, read-out: IC50 range in cells with solvent front mutations
Description: as §3, §4

[9] = system: BaF3 cells with gatekeeper mutations (TRKA^F589L, TRKB^F663L, TRKC^F617L); assay: BaF3 cell proliferation, summary over gatekeeper lines; conditions: Mus musculus, BaF3, read-out: IC50 in cells with gatekeeper mutations
Description: as §3, §4

[10] = system: TRKs-xDGF mutants TRKA-G667C, TRKB-G709C and TRKC-G696C in stable BaF3 models; assay: Western blot of xDFG mutant TRK signal pathway (Figure S2); assay type: cell-based, Murine; conditions: 6 h
Description: as §2

[11] = system: BaF3-CD74-TRKA-G667C xenograft; assay: BaF3-CD74-TRKA-G667C xenograft model; assay type: in vivo; conditions: for TGI (tumor growth inhibition): intraperitoneally once daily, 12 consecutive days

With `Cc1c(C#Cc2cnc3cnc(-c4ccc(N)cc4)cn23)cccc1C(=O)Nc1cc(CN2CCN(C)CC2)cc(C(C)C)c1` [JND4135, 3-((6-(4-aminophenyl)imidazo[1,2-a]pyrazin-3-yl)ethynyl)-N-(3-isopropyl-5-((4-methylpiperazin-1-yl)methyl)phenyl)-2-methylbenzamide] the koff (TRKC-G696C; Koff, read-out: dissociation rate with TRKC-G696C) was 0.00135 s⁻¹, the Kd (TRKC-G696C; read-out: Kd, binding affinity to TRKC-G696C) was 3.68 nM and the IC50 (BaF3 ETV6-TRKB-G639R) was 10.1 ± 3.9 nM. For the same compound, the IC50 (BaF3 CD74-TRKA-G667C) was 1.4 ± 0.2 nM, the “fold slower dissociation rate than that of control drugs” value (TRKC WT [1]) was 3.81–27.85 fold and the koff (TRKC WT [2]; Koff, read-out: dissociation rate with TRKC-WT) was 0.000278 s⁻¹. For the same compound, the Kd (TRKC WT [2]; read-out: Kd, binding affinity to TRKC-WT) was 2.57 nM, the IC50 (BaF3 QKI-TRKB) was 2.4 ± 0.6 nM and the IC50 (Parental BaF3 (+IL3)) was 1950 ± 25.1 nM. The IC50 (BaF3 MPRIP-TRKA) was 7.1 ± 2.3 nM, the IC50 (BaF3 CD74-TRKA-F589L) was 75 ± 12.7 nM and the IC50 [3] was 2.4 to 23.1 nM. For the same compound, the IC50 (BaF3 CD74-TRKA-G595R) was 33.7 ± 7.1 nM, the “concentration from which phosphorylation of TRKA and downstream ERK, PLCγ decreased” value (from here on “concentration … PLCγ decreased”) [4] was 40 nM and the “concentration … PLCγ decreased” value [5] was 1.6 nM. The “concentration … PLCγ decreased” value [6] was 8 nM, the “absorption via oral administration” value [7] was “almost no absorption” and the IC50 [8] was 9.4 to 33.7 nM. The IC50 [9] was 37.3 to 178 nM, the “dose that effectively inhibits the activation of TRKs-xDGF mutants” value [10] was 8.0 nM and the “TGI (tumor growth inhibition)” value ([11]; 20 mg/kg) was 34.2%. The “TGI (tumor growth inhibition)” value ([11]; 40 mg/kg) was 81.0%, the “tolerability (mortality, body weight)” value ([11]; 20 and 40 mg/kg/day, 12 days) was “no mortality or significant body weight loss” and the “activation of TRKA and downstream molecules PLCγ-1 and ERK in tumor tissues” value ([11]; tumor tissues at end of treatment, Western blot) was “effectively inhibit”.
